Measurements reported in patent US20220281866A1, “5,8-DISUBSTITUTED-[1,2,4]TRIAZOLO[1,5-A]PYRIDINYL AND 5,8-DISUBSTITUTED-IMIDAZO[1,2-A]PYRIDINE DERIVATIVES USEFUL AS INHIBITORS OF ENTEROPEPTIDASE” (Janssen Pharmaceutica NV, priority 2019, published 2022).

Legend:
[1] = molecular target: T1, Recombinant full-length human EP (Enteropeptidase) (Homo sapiens, UniProt P98073); assay: In vitro inhibition potencies against Enteropeptidase (EP), fluorescent peptide GDDDDK-naphthylamine substrate; format: biochemical; settings: 300 μM substrate, 1.25 nM EP; for inhibition at 0.1 µM: compound 0.1 μM; for inhibition at 1 µM: compound 1 μM; for inhibition at 10 µM: compound 10 μM; for kinact/KI: 12-point dose-dependence, time-dependent inhibition, duplicate dilutions, read-out: kinact/KI^App
T1 construct: Recombinant full-length human EP (PeproTech, Cat #450-48C); purchased PeproTech 450-48C
Experimental: In vitro inhibition potencies against Enteropeptidase (EP) Recombinant full-length human EP (PeproTech, Cat #450-48C) was used in this biochemical assay, with a quenched fluorescent labeled peptide GDDDDK-naphthylamine (NA) (Sigma, Cat #G5261) as the substrate in a buffer of 50 mM Tris-HCl pH 7.4, 200 mM NaCl and 0.01% Triton X-100. The enzyme activity was measured by following the formation of the cleavage product […](NA) by monitoring the fluorescence intensity (FI) at excitation/emission wavelengths of 340/410 nm. The steady-state kinetic characterization studies yielded an average of KM to be 412±22 μM and the apparent turnover number kcat^app of 11.8±0.4 s^−1 (N=2).
Compound inhibition studies were carried out under the conditions of 300 μM substrate and 1.25 nM EP. Reaction progress curves were collected by reading the FI at 340/410 nm continuously for 1 hour at an interval of 1 minute.
To screen compounds of formula (I), inhibition was studied at 4 different compound concentrations of 10 μM, 1 μM, 0.1 μM and 0.01 μM. Initial velocity of the reaction was determined, and percent of inhibition was calculated by comparing to the reaction in the absence of compound.
Accurate measurements of the inhibition potencies of selected compounds were studied in a 12-point dose-dependence fashion. […] Compound potency was measured by determining the inactivation rate constant (kobs) following the reaction change from the initial velocity vi to the steady-state velocity vs at various compound concentrations. The inactivation rate constants (kobs), were derived by fitting the reaction progress curves to eq. 1.
where YT is the detection signal of the reaction at time t, vi and vs are the initial and the steady-state velocities of the reaction, t is the reaction time. Y0 is the background signal (when t=0).
Compound binding mechanism was shown by plotting kobs˜[compound]. Hyperbolic fitting to eq. 2
conforms to a two-step binding mechanism as shown in Scheme BIO-1.
The plateau of the curve is the forward step rate constant of the isomerization step k3, KI^app is the inhibitor concentration that leads to half-maximal rate of inhibition of enzyme under the assay conditions. Compound inhibition potency was reported by the value of k3/KI^app.
A linear dependence of eq.3
indicates a one-step binding mechanism as shown in Scheme BIO-2
Slope of the linear fit gives the second-order rate constant of the compound binding k1, which is used to represent the compound inhibition potency.
(§1) Representative compounds of the present invention were tested according to the procedures as described in Biological Example 1 and Biological Example 2 above, with results as listed in Table 2 and Table 3, below. Results are reported as the %-inhibition (% Inh) or Kinact/KI value. Variability for the functional assay was typically within 20%. For the column headed Kinact/KI the listed measurement is the result of duplicate dilutions.

[2] = molecular target: T2, Bovine trypsin (Bos taurus, UniProt P00760); assay: Biochemical Assay of Trypsin (T), H-D-CHA-AR-AMC substrate; settings: 15 μM substrate, 0.025 nM Trypsin; for inhibition at 0.1 µM: compound 0.1 μM; for inhibition at 1 µM: compound 1 μM; for inhibition at 10 µM: compound 10 μM
T2 construct: purchased Sigma-Aldrich T1426
T2 sequence (P00760 24-246): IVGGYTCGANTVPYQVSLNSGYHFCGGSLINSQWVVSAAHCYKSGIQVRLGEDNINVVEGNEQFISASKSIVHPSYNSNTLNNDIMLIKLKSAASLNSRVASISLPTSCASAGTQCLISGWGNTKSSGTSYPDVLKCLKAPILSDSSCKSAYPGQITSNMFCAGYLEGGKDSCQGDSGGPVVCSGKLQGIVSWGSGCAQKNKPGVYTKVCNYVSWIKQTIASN
Experimental: Bovine trypsin was purchased from Sigma-Aldrich (Cat No. T1426), and 7-amino-4-methylcoumarin (AMC) conjugated peptide H-D-cyclohexylalanine (D-CHA)-AR-AMC was used as the substrate in the assay. The protease activity of trypsin was followed by measuring AMC production by the emission fluorescence intensity of AMC at 460 nm with the excitation at 375 nm, in the same assay buffer as used in the EP assay. The enzyme kinetic characterization studies yielded an average of KM to be 3.9±0.5 μM and the apparent turnover number kcat^app of 33.8±0.4 s^−1 (N=2).
Studies of compound inhibition against T were carried out under the conditions of 15 μM substrate and 0.025 nM Trypsin. Reaction progress curves were collected by reading the FI at 375/460 nm continuously for 1 hour at an interval of 1 minute. Similar to the procedure for Enteropeptidase described above, compounds of formula (I) were screened against Trypsin at 4 different concentrations to obtain the percent of inhibition at 10 μM, 1 μM, 0.1 μM and 0.01 μM, and accurate potencies of selected compounds against Trypsin were derived from detailed 12-point dose-dependence studies for time-dependent inhibitors.
as §1

T1 sequence (P98073 whole entry): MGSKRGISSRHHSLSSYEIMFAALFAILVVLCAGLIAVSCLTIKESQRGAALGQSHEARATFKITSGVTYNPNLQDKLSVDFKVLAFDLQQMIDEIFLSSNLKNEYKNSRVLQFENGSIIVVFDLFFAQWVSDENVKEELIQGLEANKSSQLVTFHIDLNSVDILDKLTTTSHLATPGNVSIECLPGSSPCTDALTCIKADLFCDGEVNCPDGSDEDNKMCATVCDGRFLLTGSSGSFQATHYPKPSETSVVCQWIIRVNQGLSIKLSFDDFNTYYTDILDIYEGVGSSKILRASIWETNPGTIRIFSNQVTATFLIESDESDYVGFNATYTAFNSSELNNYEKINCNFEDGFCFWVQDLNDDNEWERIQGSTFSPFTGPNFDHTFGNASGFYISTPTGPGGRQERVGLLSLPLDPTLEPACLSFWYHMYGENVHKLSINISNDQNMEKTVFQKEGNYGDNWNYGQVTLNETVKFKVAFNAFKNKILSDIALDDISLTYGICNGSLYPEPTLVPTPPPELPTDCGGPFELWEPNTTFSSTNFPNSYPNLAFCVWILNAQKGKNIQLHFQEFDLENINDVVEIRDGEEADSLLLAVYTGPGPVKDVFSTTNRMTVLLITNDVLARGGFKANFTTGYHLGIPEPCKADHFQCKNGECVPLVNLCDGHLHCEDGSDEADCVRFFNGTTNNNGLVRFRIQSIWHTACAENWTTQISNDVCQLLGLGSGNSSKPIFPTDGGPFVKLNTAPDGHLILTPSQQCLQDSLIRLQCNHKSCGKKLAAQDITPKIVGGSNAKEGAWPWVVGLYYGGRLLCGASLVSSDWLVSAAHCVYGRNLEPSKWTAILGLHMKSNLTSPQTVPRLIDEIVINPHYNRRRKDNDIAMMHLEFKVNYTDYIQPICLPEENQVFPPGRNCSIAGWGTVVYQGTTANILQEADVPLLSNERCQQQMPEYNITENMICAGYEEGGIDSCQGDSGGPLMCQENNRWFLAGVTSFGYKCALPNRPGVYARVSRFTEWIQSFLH

| SMILES | inhibition at 0.1 µM [1] [%] | inhibition at 1 µM [1] [%] | inhibition at 10 µM [1] [%] | inhibition at 0.1 µM [2] [%] | inhibition at 1 µM [2] [%] | inhibition at 10 µM [2] [%] | kinact/KI [1] [M⁻¹ s⁻¹] | kinact/KI ([2]; 12-point dose-dependence, time-dependent inhibition, duplicate dilutions, read-out: Kinact/KI^App) [M⁻¹ s⁻¹] |
| --- | --- | --- | --- | --- | --- | --- | --- | --- |
| N=C(N)Nc1ccc(C(=O)Oc2ccc(C3OC(=O)NC3=O)n3ncnc23)cc1 (stereo not drawn) [Compound 17, 5-(2,4-dioxooxazolidin-5-yl)-[1,2,4]triazolo[1,5-a]pyridin-8-yl 4-guanidinobenzoate] | 73 | 101 | 100 | 99.8 | 100 | 100 | – | – |
| N=C(N)Nc1ccc(C(=O)Oc2ccc(CC(=O)O)n3ncnc23)cc1I [Compound 13, 2-(8-(4-guanidino-3-iodobenzoyloxy)-[1,2,4]triazolo[1,5-a]pyridin-5-yl)acetic acid] | -1.5 | 15.8 | 65 | 0.9 | 7.6 | 45 | – | – |
| N#CNC(=N)c1ccc(C(=O)Oc2ccc(CC(=O)O)n3ncnc23)cc1 [Compound 38, 2-(8-(4-(N-cyanocarbamimidoyl)benzoyloxy)-[1,2,4]triazolo[1,5-a]pyridin-5-yl)acetic acid] | -1.6 | 1.9 | 13.6 | -2.1 | 2.5 | 35.8 | – | – |
| CS(=O)(=O)NC(=O)Cc1ccc(OC(=O)c2cnc(NC(=N)N)nc2)c2ncnn12 [Compound 30, 5-(2-(methylsulfonamido)-2-oxoethyl)-[1,2,4]triazolo[1,5-a]pyridin-8-yl 2-guanidinopyrimidine-5-carboxylate] | 92.1 | 99.5 | 100 | 96.5 | 100 | 100 | – | – |
| N=C(N)Nc1ccc(C(=O)Oc2cc(CCC(=O)O)cn3ncnc23)cc1 [Compound 25, 3-(8-(4-guanidinobenzoyloxy)-[1,2,4]triazolo[1,5-a]pyridin-6-yl)propanoic acid] | 45.2 | 102 | 101 | 99.2 | 100 | 100 | – | – |
| N=C(N)Nc1ccc(C(=O)Oc2ccc(Cc3nn[nH]n3)n3ncnc23)cc1 [Compound 11, 5-((2H-tetrazol-5-yl)methyl)-[1,2,4]triazolo[1,5-a]pyridin-8-yl 4-guanidinobenzoate] | 89.7 | 101 | 100 | 99.3 | 100 | 100 | – | – |
| N=C(N)Nc1ccc(C(=O)Oc2ccc(CC(=O)O)n3ncnc23)c(Cl)c1 [Compound 18, 2-(8-(2-chloro-4-guanidinobenzoyloxy)-[1,2,4]triazolo[1,5-a]pyridin-5-yl)acetic acid] | 81.2 | 100 | 100 | 43.5 | 97.6 | 99.9 | – | – |
| N=C(N)Nc1ccc(C(=O)Oc2ccc(CCC(=O)O)n3ccnc23)cc1 [Compound 2, 3-(8-(4-guanidinobenzoyloxy)imidazo[1,2-a]pyridin-5-yl)propanoic acid] | 27.6 | 95.1 | 100 | 61 | 100 | 100 | 24400 | – |
| N=C(N)Nc1ccc(C(=O)Oc2ccc(CC(=O)O)n3ncnc23)cc1 [Compound 1, 2-{8-[(4-carbamimidamidophenyl)carbonyloxy]-[1,2,4]triazolo[1,5-a]pyridin-5-yl}acetic acid] | 97.8 | 100 | 100 | 97.2 | 100 | 100 | 130000 | 159000 |
| C/C(=N\O)Nc1ccc(C(=O)Oc2ccc(CC(=O)O)n3ncnc23)cc1 [Compound 40, (E)-2-(8-(4-(N′-hydroxyacetimidamido)benzoyloxy)-[1,2,4]triazolo[1,5-a]pyridin-5-yl)acetic acid] | -10.7 | -10.1 | -10.8 | -8 | -0.4 | 10.1 | – | – |
| N=C(N)Nc1ccc(C(=O)Oc2ccc(CCC(=O)O)n3ncnc23)cc1 [Compound 3, 3-(8-(4-guanidinobenzoyloxy)-[1,2,4]triazolo[1,5-a]pyridin-5-yl)propanoic acid] | 35 | 101 | 100 | 99.8 | 100 | 100 | – | – |
| CC(=N)Nc1ccc(C(=O)Oc2ccc(CC(=O)O)n3ncnc23)cc1 [Compound 37, 2-(8-(4-acetimidamidobenzoyloxy)-[1,2,4]triazolo[1,5-a]pyridin-5-yl)acetic acid] | 47.8 | 99.6 | 100 | 11.5 | 68 | 99.7 | – | – |
| N=C(N)Nc1ccc(C(=O)Oc2ccc(CC(=O)O)n3ncnc23)c(C(F)(F)F)c1 [Compound 20, 2-(8-(4-guanidino-2-(trifluoromethyl)benzoyloxy)-[1,2,4]triazolo [1,5-a]pyridin-5-yl)acetic acid] | 4.1 | 38.5 | 98.9 | 2.3 | 16.6 | 88.7 | – | – |
| COc1cc(C(=O)Oc2ccc(CC(=O)O)n3ncnc23)ccc1NC(=N)N [Compound 12, 2-(8-(4-guanidino-3-methoxybenzoyloxy)-[1,2,4]triazolo[1,5-a]pyridin-5-yl)acetic acid] | 20.8 | 87.1 | 101 | 13.8 | 72.4 | 99.9 | – | – |
| CONC(=N)c1ccc(C(=O)Oc2ccc(CC(=O)O)n3ncnc23)cc1 [Compound 36, 2-(8-(4-(N-methoxycarbamimidoyl)benzoyloxy)-[1,2,4]triazolo[1,5-a]pyridin-5-yl)acetic acid] | 2.4 | 9.1 | 34 | -3.1 | -3.3 | 18.2 | – | – |
| N=C(N)Nc1ccc(C(=O)Oc2ccc(CC(=O)O)n3ncnc23)c2ccoc12 [Compound 24] | 36.3 | 98.8 | 100 | 14.6 | 80 | 99.9 | – | – |
